# Species: Rattus norvegicus
# Assay: DrugMatrix - Regimen: Daily Repeat
# Assay type: toxicity, organism-based, Sprague-Dawley
# Design: regimen Daily Repeat, gender Male, age 6-8 weeks
# Conditions: in vivo, po, route oral GAVAGE, […]; for POTASSIUM / SODIUM / TOTAL BILIRUBIN / TOTAL PROTEIN / URIC ACID / ALANINE AMINOTRANSFERASE / ALBUMIN / ALKALINE PHOSPHATASE / ASPARTATE AMINOTRANSFERASE / BLOOD UREA NITROGEN / CARBON DIOXIDE / CHLORIDE / CHOLESTEROL / CREATINE PHOSPHOKINASE / CREATININE / GLUCOSE / LACTATE DEHYDROGENASE / LIPASE / PHOSPHORUS: tissue Plasma; for ABSOLUTE BASOPHIL / ABSOLUTE EOSINOPHIL / ABSOLUTE LYMPHOCYTE / ABSOLUTE MONOCYTE / ABSOLUTE SEGMENTED NEUTROPHIL / BASOPHIL / EOSINOPHIL / ERYTHROCYTE COUNT / HEMATOCRIT / HEMOGLOBIN / LEUKOCYTE COUNT / LYMPHOCYTE / MEAN CORPUSCULAR HEMOGLOBIN / MEAN CORPUSCULAR HEMOGLOBIN CONCENTRATION / MEAN CORPUSCULAR VOLUME / MONOCYTE / NEUTROPHIL / NUCLEATED RED BLOOD CELLS / PLATELET COUNT: tissue Blood
# [1] = 9 mg/kg, 72 h, dose level M1, time 3 day
# [2] = 9 mg/kg, 120 h, dose level M1, time 5 day
# [3] = 36 mg/kg, 72 h, dose level High, time 3 day
# [4] = 36 mg/kg, 120 h, dose level High, time 5 day
smiles,measurement,setting,value
CS(=O)(=O)OCCCCOS(C)(=O)=O [BUSULFAN],POTASSIUM,[1],6.13 MEQ/L
same,SODIUM,[1],143.63 MEQ/L
same,TOTAL BILIRUBIN,[1],0.13 mg/dL
same,TOTAL PROTEIN,[1],5.73 G/DL
same,URIC ACID,[1],1.27 mg/dL
same,ABSOLUTE BASOPHIL,[2],0 CELLS/uL
same,ABSOLUTE EOSINOPHIL,[2],0 CELLS/uL
same,ABSOLUTE LYMPHOCYTE,[2],6323.33 CELLS/uL
same,ABSOLUTE MONOCYTE,[2],60 CELLS/uL
same,ABSOLUTE SEGMENTED NEUTROPHIL,[2],150 CELLS/uL
same,BASOPHIL,[2],0%
same,EOSINOPHIL,[2],0%
same,ERYTHROCYTE COUNT,[2],6.03 x10E6/uL
same,HEMATOCRIT,[2],36.67%
same,HEMOGLOBIN,[2],14.47 G/DL
same,LEUKOCYTE COUNT,[2],6.53 x10E3/uL
same,LYMPHOCYTE,[2],97%
same,MEAN CORPUSCULAR HEMOGLOBIN,[2],24.03 pg
same,MEAN CORPUSCULAR HEMOGLOBIN CONCENTRATION,[2],39.43 G/DL
same,MEAN CORPUSCULAR VOLUME,[2],60.83 fL
same,MONOCYTE,[2],0.67%
same,NEUTROPHIL,[2],2.33%
same,NUCLEATED RED BLOOD CELLS,[2],0 /100WBC
same,PLATELET COUNT,[2],1101.33 x10E3/uL
same,ALANINE AMINOTRANSFERASE,[2],48.67 u/L
same,ALBUMIN,[2],4.4 G/DL
same,ALKALINE PHOSPHATASE,[2],322 u/L
same,ASPARTATE AMINOTRANSFERASE,[2],84.67 u/L
same,BLOOD UREA NITROGEN,[2],8.33 mg/dL
same,CARBON DIOXIDE,[2],33 mmol/L
same,CHLORIDE,[2],99.33 MEQ/L
same,CHOLESTEROL,[2],81.67 mg/dL
same,CREATINE PHOSPHOKINASE,[2],189.67 u/L
same,CREATININE,[2],0.3 mg/dL
same,GLUCOSE,[2],133.33 mg/dL
same,LACTATE DEHYDROGENASE,[2],120 u/L
same,LIPASE,[2],11.33 u/L
same,PHOSPHORUS,[2],9.3 mg/dL
same,POTASSIUM,[2],6.08 MEQ/L
same,SODIUM,[2],145.27 MEQ/L
same,TOTAL BILIRUBIN,[2],0.13 mg/dL
same,TOTAL PROTEIN,[2],6.33 G/DL
same,URIC ACID,[2],0.77 mg/dL
same,ABSOLUTE BASOPHIL,[3],0 CELLS/uL
same,ABSOLUTE EOSINOPHIL,[3],0 CELLS/uL
same,ABSOLUTE LYMPHOCYTE,[3],7116 CELLS/uL
same,ABSOLUTE MONOCYTE,[3],0 CELLS/uL
same,ABSOLUTE SEGMENTED NEUTROPHIL,[3],417.33 CELLS/uL
same,BASOPHIL,[3],0%
same,EOSINOPHIL,[3],0%
same,ERYTHROCYTE COUNT,[3],5.94 x10E6/uL
same,HEMATOCRIT,[3],37.13%
same,HEMOGLOBIN,[3],14.47 G/DL
same,LEUKOCYTE COUNT,[3],7.53 x10E3/uL
same,LYMPHOCYTE,[3],94.33%
same,MEAN CORPUSCULAR HEMOGLOBIN,[3],24.5 pg
same,MEAN CORPUSCULAR HEMOGLOBIN CONCENTRATION,[3],39.07 G/DL
same,MEAN CORPUSCULAR VOLUME,[3],62.67 fL
same,MONOCYTE,[3],0%
same,NEUTROPHIL,[3],5.67%
same,NUCLEATED RED BLOOD CELLS,[3],0 /100WBC
same,PLATELET COUNT,[3],1000.33 x10E3/uL
same,ALANINE AMINOTRANSFERASE,[3],45.33 u/L
same,ALBUMIN,[3],4.4 G/DL
same,ALKALINE PHOSPHATASE,[3],316.33 u/L
same,ASPARTATE AMINOTRANSFERASE,[3],72.67 u/L
same,BLOOD UREA NITROGEN,[3],12 mg/dL
same,CARBON DIOXIDE,[3],33.33 mmol/L
same,CHLORIDE,[3],101.5 MEQ/L
same,CHOLESTEROL,[3],110.33 mg/dL
same,CREATINE PHOSPHOKINASE,[3],312.33 u/L
same,CREATININE,[3],0.1 mg/dL
same,GLUCOSE,[3],170.33 mg/dL
same,LACTATE DEHYDROGENASE,[3],86.33 u/L
same,LIPASE,[3],12.33 u/L
same,PHOSPHORUS,[3],10.73 mg/dL
same,POTASSIUM,[3],5.47 MEQ/L
same,SODIUM,[3],147.05 MEQ/L
same,TOTAL BILIRUBIN,[3],0.17 mg/dL
same,TOTAL PROTEIN,[3],6.3 G/DL
same,URIC ACID,[3],0.6 mg/dL
same,ABSOLUTE BASOPHIL,[4],0 CELLS/uL
same,ABSOLUTE EOSINOPHIL,[4],0 CELLS/uL
same,ABSOLUTE LYMPHOCYTE,[4],3639 CELLS/uL
same,ABSOLUTE MONOCYTE,[4],0 CELLS/uL
same,ABSOLUTE SEGMENTED NEUTROPHIL,[4],61 CELLS/uL
same,BASOPHIL,[4],0%
same,EOSINOPHIL,[4],0%
same,ERYTHROCYTE COUNT,[4],6.14 x10E6/uL
same,HEMATOCRIT,[4],38.4%
same,HEMOGLOBIN,[4],14.8 G/DL
same,LEUKOCYTE COUNT,[4],3.7 x10E3/uL
same,LYMPHOCYTE,[4],98.5%
same,MEAN CORPUSCULAR HEMOGLOBIN,[4],24.15 pg
same,MEAN CORPUSCULAR HEMOGLOBIN CONCENTRATION,[4],38.6 G/DL
same,MEAN CORPUSCULAR VOLUME,[4],62.55 fL
same,MONOCYTE,[4],0%
same,NEUTROPHIL,[4],1.5%
same,NUCLEATED RED BLOOD CELLS,[4],0 /100WBC
same,PLATELET COUNT,[4],1040 x10E3/uL
same,ALANINE AMINOTRANSFERASE,[4],36.5 u/L
same,ALBUMIN,[4],4.35 G/DL
same,ALKALINE PHOSPHATASE,[4],322.5 u/L
same,ASPARTATE AMINOTRANSFERASE,[4],72 u/L
same,BLOOD UREA NITROGEN,[4],7 mg/dL
same,CARBON DIOXIDE,[4],28 mmol/L
same,CHLORIDE,[4],100 MEQ/L
same,CHOLESTEROL,[4],78 mg/dL
same,CREATINE PHOSPHOKINASE,[4],216 u/L
same,CREATININE,[4],0.13 mg/dL
same,GLUCOSE,[4],154 mg/dL
same,LACTATE DEHYDROGENASE,[4],72 u/L
same,LIPASE,[4],10.5 u/L
same,PHOSPHORUS,[4],9.25 mg/dL
same,POTASSIUM,[4],5.75 MEQ/L
same,SODIUM,[4],145.2 MEQ/L
same,TOTAL BILIRUBIN,[4],0.1 mg/dL
same,TOTAL PROTEIN,[4],6.35 G/DL
same,URIC ACID,[4],0.5 mg/dL

# — ChEMBL document CHEMBL3885881, “DrugMatrix”
